What all share (assay type): cell-based
For one assay, the target named is T1, human TLR8 (Homo sapiens, UniProt Q9NR97).
T1 construct: host or cells: HEK-Blue cells
T1 sequence (Q9NR97 27-1041): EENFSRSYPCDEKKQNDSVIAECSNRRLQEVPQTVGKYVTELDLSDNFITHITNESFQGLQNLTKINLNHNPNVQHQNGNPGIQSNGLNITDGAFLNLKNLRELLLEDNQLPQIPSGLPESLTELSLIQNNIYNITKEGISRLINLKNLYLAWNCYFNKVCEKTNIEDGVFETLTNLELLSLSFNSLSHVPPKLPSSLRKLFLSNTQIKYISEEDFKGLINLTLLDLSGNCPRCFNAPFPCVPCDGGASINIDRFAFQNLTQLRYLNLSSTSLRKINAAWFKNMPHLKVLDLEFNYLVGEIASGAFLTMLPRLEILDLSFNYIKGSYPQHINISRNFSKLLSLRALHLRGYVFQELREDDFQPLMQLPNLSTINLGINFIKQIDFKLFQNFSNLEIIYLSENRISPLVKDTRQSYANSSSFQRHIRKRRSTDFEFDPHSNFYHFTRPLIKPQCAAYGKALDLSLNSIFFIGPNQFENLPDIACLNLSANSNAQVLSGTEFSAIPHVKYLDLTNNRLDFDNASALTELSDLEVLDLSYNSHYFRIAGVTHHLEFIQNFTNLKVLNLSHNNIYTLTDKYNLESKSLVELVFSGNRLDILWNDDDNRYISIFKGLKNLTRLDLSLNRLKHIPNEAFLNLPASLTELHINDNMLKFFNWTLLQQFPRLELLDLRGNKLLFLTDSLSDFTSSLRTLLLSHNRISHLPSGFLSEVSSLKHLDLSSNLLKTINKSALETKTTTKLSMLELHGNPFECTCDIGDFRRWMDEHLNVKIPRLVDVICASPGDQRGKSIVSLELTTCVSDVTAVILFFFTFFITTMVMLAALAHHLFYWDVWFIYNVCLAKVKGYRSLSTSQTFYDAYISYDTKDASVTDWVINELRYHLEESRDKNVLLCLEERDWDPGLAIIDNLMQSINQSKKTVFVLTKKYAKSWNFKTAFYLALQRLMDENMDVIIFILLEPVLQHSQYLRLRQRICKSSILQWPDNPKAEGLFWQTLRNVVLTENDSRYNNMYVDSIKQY
Kind of assay: TLR8 inhibition reporter assay (HEK-Blue SEAP). The following applies: HEK-Blue cells overexpressing human TLR8, stimulated with R848 15.9 μM, 22 hour incubation. Put shortly:
(§1)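 Cells are seeded, given test compound across 0.05 nM to 50 μM, and after 30 min at room temperature stimulated with the receptor's agonist (gardiquimod 7.5 μM, R848 15.9 μM or ODN2006 5 nM for TLR7, 8, 9). SEAP is measured after 22 h at 37 °C.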

The next assay has as its target T2, human TLR9 (Homo sapiens, UniProt Q9NR96).
T2 construct: host or cells: HEK-Blue cells
T2 sequence (Q9NR96 26-1032): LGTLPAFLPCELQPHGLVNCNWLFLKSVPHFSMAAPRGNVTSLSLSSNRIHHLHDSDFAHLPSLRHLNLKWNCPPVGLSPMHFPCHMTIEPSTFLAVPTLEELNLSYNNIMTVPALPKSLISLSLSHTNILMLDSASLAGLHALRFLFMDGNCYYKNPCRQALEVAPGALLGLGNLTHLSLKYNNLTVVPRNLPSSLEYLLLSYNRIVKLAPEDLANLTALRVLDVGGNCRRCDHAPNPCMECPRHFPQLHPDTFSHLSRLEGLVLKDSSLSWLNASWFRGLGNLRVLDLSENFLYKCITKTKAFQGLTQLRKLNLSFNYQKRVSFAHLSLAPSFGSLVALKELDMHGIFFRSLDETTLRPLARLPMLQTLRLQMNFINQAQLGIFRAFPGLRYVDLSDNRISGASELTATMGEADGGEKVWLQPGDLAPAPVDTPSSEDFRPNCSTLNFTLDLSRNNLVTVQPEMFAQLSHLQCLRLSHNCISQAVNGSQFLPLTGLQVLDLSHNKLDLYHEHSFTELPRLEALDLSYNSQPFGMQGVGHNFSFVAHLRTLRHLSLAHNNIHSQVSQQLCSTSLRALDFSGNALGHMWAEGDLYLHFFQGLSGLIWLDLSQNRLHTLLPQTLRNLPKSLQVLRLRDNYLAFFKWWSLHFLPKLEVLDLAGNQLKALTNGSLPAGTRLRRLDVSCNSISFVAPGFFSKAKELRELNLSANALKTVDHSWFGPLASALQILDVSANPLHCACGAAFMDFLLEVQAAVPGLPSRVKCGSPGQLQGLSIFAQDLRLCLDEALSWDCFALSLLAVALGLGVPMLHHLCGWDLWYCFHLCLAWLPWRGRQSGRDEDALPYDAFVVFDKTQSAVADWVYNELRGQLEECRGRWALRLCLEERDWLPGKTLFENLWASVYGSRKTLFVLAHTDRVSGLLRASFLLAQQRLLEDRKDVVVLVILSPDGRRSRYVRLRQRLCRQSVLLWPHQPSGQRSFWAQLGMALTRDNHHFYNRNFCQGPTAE
Kind of assay: TLR9 inhibition reporter assay (HEK-Blue SEAP). The settings on record: HEK-Blue cells overexpressing human TLR9, stimulated with ODN2006 5 nM, 22 hour incubation. Put shortly: as §1

Another assay deals with T3, human TLR7 (Homo sapiens, UniProt Q9NYK1).
T3 construct: host or cells: HEK-Blue cells
T3 sequence (Q9NYK1 27-1049): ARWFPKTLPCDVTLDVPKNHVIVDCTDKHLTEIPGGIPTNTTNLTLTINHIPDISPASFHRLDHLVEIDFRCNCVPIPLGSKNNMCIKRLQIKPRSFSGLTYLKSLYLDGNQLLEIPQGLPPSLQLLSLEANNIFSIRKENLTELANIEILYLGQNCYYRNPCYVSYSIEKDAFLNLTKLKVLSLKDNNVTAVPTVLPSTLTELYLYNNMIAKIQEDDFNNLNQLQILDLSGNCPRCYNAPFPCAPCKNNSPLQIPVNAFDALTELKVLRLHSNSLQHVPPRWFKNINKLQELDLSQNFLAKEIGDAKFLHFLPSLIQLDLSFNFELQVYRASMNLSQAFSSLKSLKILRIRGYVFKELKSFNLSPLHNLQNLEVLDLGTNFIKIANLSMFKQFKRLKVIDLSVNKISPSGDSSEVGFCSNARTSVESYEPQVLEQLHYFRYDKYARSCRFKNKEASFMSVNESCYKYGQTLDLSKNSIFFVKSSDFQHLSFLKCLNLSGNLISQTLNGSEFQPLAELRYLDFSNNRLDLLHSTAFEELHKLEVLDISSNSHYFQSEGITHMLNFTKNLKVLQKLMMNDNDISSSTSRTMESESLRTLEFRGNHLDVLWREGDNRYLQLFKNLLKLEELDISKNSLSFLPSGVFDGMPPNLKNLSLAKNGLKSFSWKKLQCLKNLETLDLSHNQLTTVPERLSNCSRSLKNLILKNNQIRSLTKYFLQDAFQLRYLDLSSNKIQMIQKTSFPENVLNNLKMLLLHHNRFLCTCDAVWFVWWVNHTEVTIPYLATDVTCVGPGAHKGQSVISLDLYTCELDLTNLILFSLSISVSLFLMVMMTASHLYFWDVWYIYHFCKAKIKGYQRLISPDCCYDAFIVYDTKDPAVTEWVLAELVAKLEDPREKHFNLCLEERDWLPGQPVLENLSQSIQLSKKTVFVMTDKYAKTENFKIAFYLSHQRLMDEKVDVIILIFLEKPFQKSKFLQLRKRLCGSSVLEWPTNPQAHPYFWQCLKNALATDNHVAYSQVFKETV
Nature of the assay: TLR7 inhibition reporter assay (HEK-Blue SEAP). The settings on record: HEK-Blue cells overexpressing human TLR7, stimulated with gardiquimod 7.5 μM, 22 hour incubation. Put shortly:
as §1

SMILES strings stand for the structures. pIC50: −log10 of the molar value.

Turning to `COc1cc2c(C3CCNCC3)n[nH]c2cc1-c1cc(C)c2ncnn2c1` [Example 19, 6-(5-methoxy-3-(piperidin-4-yl)-1H-indazol-6-yl)-8-methyl-[1,2,4]triazolo[1,5-a]pyridine], the pIC50 was 7.95 against human TLR8, 5.75 on human TLR9 and 7.50 against human TLR7.

Consider `Cc1cc(-c2cc(C)c3ncnn3c2)cc2[nH]nc(C3CCN(C(=O)CN(C)C)CC3)c12` [Example 75, 2-(dimethylamino)-1-(4-(4-methyl-6-(8-methyl-[1,2,4]triazolo[1,5-a]pyridin-6-yl)-1H-indazol-3-yl)piperidin-1-yl)ethan-1-one], for which the pIC50 is 7.85 on human TLR8, 5.72 at human TLR9 and 8.14 against human TLR7.

Take `Cc1cc2c(NC(=O)C3CCNCC3)n[nH]c2cc1-c1cc(C)c2ncnn2c1` [Example 202, N-(5-methyl-6-(8-methyl-[1,2,4]triazolo[1,5-a]pyridin-6-yl)-1H-indazol-3-yl)piperidine-4-carboxamide]: the pIC50 at human TLR8 is 7.82; on human TLR9, 5.00; on human TLR7, 6.57.

Consider `COc1cc(-c2cc(C)c3ncnn3c2)cc2[nH]nc(C3CCNCC3)c12` [Example 86, 6-(4-methoxy-3-(piperidin-4-yl)-1H-indazol-6-yl)-8-methyl-[1,2,4]triazolo[1,5-a]pyridine], for which the pIC50 on human TLR8 was 7.66; at human TLR9, 5.89; at human TLR7, 8.24.

Take `Cc1cc(-c2cc3[nH]nc(C4CCN(C(C)C)CC4)c3cc2C(C)C)cn2ncnc12` [Example 123, 6-(5-isopropyl-3-(1-isopropylpiperidin-4-yl)-1H-indazol-6-yl)-8-methyl-[1,2,4] triazolo[1,5-a]pyridine]: the pIC50 is 10.00 against human TLR8, 5.25 on human TLR9 and 9.30 at human TLR7.

Consider `CCOC1CN(C2CCC(c3n[nH]c4cc(-c5cc(C)c6ncnn6c5)c(C(C)C)cc34)CC2)C1` (single isomer, unassigned) [Example 149, 6-(3-(4-(3-ethoxyazetidin-1-yl)cyclohexyl)-5-isopropyl-1H-indazol-6-yl)-8-methyl-[1,2,4]triazolo[1,5-a]pyridine], for which the pIC50 on human TLR8 was 9.40; on human TLR9, 5.13; against human TLR7, 9.10.

As for `Cc1cc(-c2cc3[nH]nc(C4CCC(N5CC6(C5)CS(=O)(=O)C6)CC4)c3cc2C(C)C)cn2ncnc12` (single isomer, unassigned) [Example 142, 6-(4-(5-isopropyl-6-(8-methyl-[1,2,4]triazolo[1,5-a]pyridin-6-yl)-1H-indazol-3-yl)cyclohexyl)-2-thia-6-azaspiro[3.3]heptane 2,2-dioxide], the negative logarithm of the IC50 (pIC50) was 9.70 at human TLR8, 5.01 against human TLR9 and 8.89 against human TLR7.

Take `CCc1cc2c(C3CCC(NCCS(C)(=O)=O)CC3)n[nH]c2cc1-c1cc(C)c2ncnn2c1` (single isomer, unassigned) [Example 99, 4-(5-ethyl-6-(8-methyl-[1,2,4]triazolo[1,5-a]pyridin-6-yl)-1H-indazol-3-yl)-N-(2-(methylsulfonyl)ethyl)cyclohexan-1-amine]: the values for the pIC50 at human TLR8, on human TLR9 and against human TLR7 were 10.00, 4.85 and 9.05, respectively.

With `Cc1cc(-c2cc3[nH]nc(C4CCNCC4)c3cc2C(C)C)cn2ncnc12` [Example 102, 6-(5-isopropyl-3-(piperidin-4-yl)-1H-indazol-6-yl)-8-methyl-[1,2,4]triazolo[1,5-a]pyridine], the pIC50 at human TLR8 is 9.40; at human TLR9, 4.96; against human TLR7, 9.00.

With `Cc1cc(-c2cc(C)c3ncnn3c2)cc2[nH]nc(C3CCN(CC(=O)N(C)C)CC3)c12` [Example 76, N,N-dimethyl-2-(4-(4-methyl-6-(8-methyl-[1,2,4]triazolo[1,5-a]pyridin-6-yl)-1H-indazol-3-yl)piperidin-1-yl) acetamide], the pIC50 against human TLR8 was 7.42; against human TLR9, 5.67; against human TLR7 it was 8.16.

Take `Cc1cc(-c2cc3[nH]nc(C4CCC(N5CC6(COC6)C5)CC4)c3cc2C(C)C)cn2ncnc12` (single isomer, unassigned) [Example 129, 6-(4-(5-isopropyl-6-(8-methyl-[1,2,4]triazolo[1,5-a]pyridin-6-yl)-1H-indazol-3-yl)cyclohexyl)-2-oxa-6-azaspiro[3.3]heptane]: the pIC50 against human TLR8 was 9.30; on human TLR9, 5.12; against human TLR7, 8.39.

In the case of `COc1cc(-c2cc(C)c3c(OC4CCC(N(C)C)CC4)n[nH]c3c2)cn2ncnc12` (single isomer, unassigned) [Example 183, 4-((6-(8-methoxy-[1,2,4]triazolo[1,5-a]pyridin-6-yl)-4-methyl-1H-indazol-3-yl)oxy)-N,N-dimethylcyclohexan-1-amine], the negative logarithm of the IC50 (pIC50) against human TLR8 is 8.09; against human TLR9, 5.64; at human TLR7 it was 8.31.

As a reminder, the pIC50 is −log10 of the IC50, conventionally taken in molar units. Read a high pIC50 as a low IC50.

The values above are taken from patent US12172995B2, “Substituted indole and indazole compounds” (BRISTOL-MYERS SQUIBB COMPANY, priority 2018, dated 2024).
